In patent US10961163B2, “Compositions and methods useful for enhancing the microbial conversion of nitrate into ammonium” (The Regents of the University of California, priority 2016, dated 2021) one finds Ammonium/OD ratio data, which are given here for 33 compounds.

The test system of this assay is microbial enrichment cultures. In words: Ammonium production normalized by growth (NH4+/OD ratio) of microbial enrichment cultivated on individual carbon sources. It counts as cell-based.
The mark [1] stands for this setting: average of 8 independent cultures amended with varying concentrations of the carbon source, ammonium by colorimetric (Bertholet) assay, growth by OD 600.

Where two headings read alike, the source gives them in different places. Peptide text beside a SMILES is read from it.

Consider `OC[C@H]1O[C@H](O[C@H]2[C@H](O)[C@@H](O)[C@H](O)O[C@@H]2CO)[C@H](O)[C@@H](O)[C@@H]1O` [D-Maltose monohydrate], for which the Ammonium/OD ratio under setting [1] is 0.94.
Still for that read-out and setting: to `NC(=O)NCCC[C@H](N)C(=O)O` [L-Citrulline] belongs 1.46.
Take `O=C[C@H](O)[C@@H](O)[C@H](O)[C@H](O)COP(=O)([O-])[O-].[Na+].[Na+]` [D-Glucose-6-Phosphate sodium salt]: the Ammonium/OD ratio under setting [1] worked out at 0.99.
For `C[C@H](O)[C@@H](O)[C@@H](O)[C@H](O)C=O` [L-Fucose], under setting [1], the Ammonium/OD ratio is on record as 1.06.
On the same count and under the same terms, as for `O=C(CO)[C@@H](O)[C@H](O)[C@@H](O)C(=O)[O-].[K+]` [5-Keto-D-Gluconic Acid potassium salt], the figure is 1.12; as for `Cc1cn([C@H]2C[C@H](O)[C@@H](CO)O2)c(=O)[nH]c1=O` [Thymidine], 1.06; as for D-Salicin, 1.35.
On the same count and under the same terms, to `O.O=C([O-])CCC(=O)C(=O)[O-].[Na+].[Na+]` [a-Ketoglutaric acid disodium salt hydrate] belongs 1.26.
Consider `OC[C@H]1O[C@@](CO)(O[C@H]2O[C@H](CO)[C@@H](O)[C@H](O)[C@H]2O)[C@@H](O)[C@@H]1O` [Sucrose], for which, under setting [1], the Ammonium/OD ratio amounted to 1.07.
Still for that read-out and setting: as for `C[N+](C)(C)CC(O)CC(=O)[O-].Cl` (stereo not drawn) [Carnitine Hydrochloride], the figure is 1.45; as for `N[C@@H](CC(=O)O)C(=O)O` [L-Aspartic Acid], 1.24; as for `O=C(CO)[C@@H](O)[C@@H](O)[C@H](O)CO` [D-Tagatose], 1.14.
Same read-out and setting: to `CC(O)C(=O)[O-].[Na+]` (racemic) [Sodium D,L-Lactate] belongs 0.91.
Same read-out and setting: as for `CCC(=O)[O-].[Na+]` [Sodium propionate], the figure is 0.94.
For `O=C[C@@H](O)[C@H](O)[C@H](O)CO` [D-Arabinose], the Ammonium/OD ratio under setting [1] was determined as 1.21.
Still for that read-out and setting: to `O=C(O)[C@@H]1CCCN1` [L-Proline] belongs 0.94.
With `NCCCC[C@H](N)C(=O)O` [L-Lysine], the Ammonium/OD ratio is listed as 1.02.
As for `OC[C@@H](O)[C@@H](O)[C@H](O)[C@H](O)CO` [D-Mannitol], the Ammonium/OD ratio under setting [1] is on record as 0.90.
The same measure, in the same setting: as for `NCC(=O)NC(CC(=O)O)C(=O)O` (racemic) [Gly-DL-Asp], the figure is 1.17; as for `C=C(CC(=O)O)C(=O)O` [Itaconic Acid], 1.40; as for Gelatin, 0.85.
The same measure, in the same setting: to `O=C(O)CO` [Glycolic Acid] belongs 1.01; to `Cl.N[C@H]1C(O)O[C@H](CO)[C@@H](O)[C@@H]1O` (stereo partly drawn) [D-Glucosamine Hydrochloride], 1.16; to `CC(C)C[C@H](N)C(=O)O` [L-Leucine], 1.07.
Still for that read-out and setting: as for `O=C([O-])[C@H](O)[C@@H](O)[C@H](O)[C@H](O)CO.[Na+]` [D-Gluconic Acid sodium salt], the figure is 1.19; as for `NC(=O)CC[C@H](N)C(=O)O` [L-Glutamine], 1.28.
Turning to `O.O=C([O-])C(=O)[O-].[K+].[K+]` [Potassium oxalate monohydrate], the Ammonium/OD ratio is listed as 1.13.
The same measure, in the same setting: to `CC(=O)[O-].[K+]` [Potassium acetate] belongs 0.98.
Regarding `O.O=C[C@H](O)[C@@H](O)[C@@H](O)[C@H](O)C(=O)O` [D-Galacturonic Acid monohydrate], the Ammonium/OD ratio under setting [1] amounted to 0.92.
Take `N=C(N)NCCC[C@H](N)C(=O)O` [L-Arginine]: the Ammonium/OD ratio is listed as 1.79.
As for `NCC(=O)N[C@@H](CCC(=O)O)C(=O)O` [Gly-Glu] (H-Gly-Glu-OH), the Ammonium/OD ratio under setting [1] is 1.12.
The same measure, in the same setting: to `C[C@@H](N)C(=O)O` [D-Alanine] belongs 1.08; to `N[C@@H](CCC(=O)O)C(=O)[O-].O.[K+]` [L-Glutamic acid monopotassium salt monohydrate], 0.98.
